Assay results published in ChEMBL document CHEMBL5120791, “Triterpenes from Pholiota populnea as Cytotoxic Agents and Chemosensitizers to Overcome Multidrug Resistance of Cancer Cells” (J Nat Prod, 2022).

Key:
COLO 205 = test: Cytotoxicity against human COLO 205 cells assessed as reduction in cell viability measured after 24 hrs by MTT assay; type: functional, cell-based; details: COLO 205, 24 h
COLO 320 = test: Cytotoxicity against human COLO 320 cells assessed as reduction in cell viability measured after 24 hrs by MTT assay; type: functional, cell-based; details: COLO 320, 24 h
[1] = biological target: ATP-dependent translocase ABCB1 (Homo sapiens, UniProt P08183); test: Inhibition of P-gp in human COLO 320 cells assessed as potentiation of doxorubicin-induced cytotoxicity by measuring combination index measured after 72 hrs by checkerboard assay; type: cell-based; details: colo 320, 72 h
ATP-dependent translocase ABCB1, sequence (P08183 whole entry): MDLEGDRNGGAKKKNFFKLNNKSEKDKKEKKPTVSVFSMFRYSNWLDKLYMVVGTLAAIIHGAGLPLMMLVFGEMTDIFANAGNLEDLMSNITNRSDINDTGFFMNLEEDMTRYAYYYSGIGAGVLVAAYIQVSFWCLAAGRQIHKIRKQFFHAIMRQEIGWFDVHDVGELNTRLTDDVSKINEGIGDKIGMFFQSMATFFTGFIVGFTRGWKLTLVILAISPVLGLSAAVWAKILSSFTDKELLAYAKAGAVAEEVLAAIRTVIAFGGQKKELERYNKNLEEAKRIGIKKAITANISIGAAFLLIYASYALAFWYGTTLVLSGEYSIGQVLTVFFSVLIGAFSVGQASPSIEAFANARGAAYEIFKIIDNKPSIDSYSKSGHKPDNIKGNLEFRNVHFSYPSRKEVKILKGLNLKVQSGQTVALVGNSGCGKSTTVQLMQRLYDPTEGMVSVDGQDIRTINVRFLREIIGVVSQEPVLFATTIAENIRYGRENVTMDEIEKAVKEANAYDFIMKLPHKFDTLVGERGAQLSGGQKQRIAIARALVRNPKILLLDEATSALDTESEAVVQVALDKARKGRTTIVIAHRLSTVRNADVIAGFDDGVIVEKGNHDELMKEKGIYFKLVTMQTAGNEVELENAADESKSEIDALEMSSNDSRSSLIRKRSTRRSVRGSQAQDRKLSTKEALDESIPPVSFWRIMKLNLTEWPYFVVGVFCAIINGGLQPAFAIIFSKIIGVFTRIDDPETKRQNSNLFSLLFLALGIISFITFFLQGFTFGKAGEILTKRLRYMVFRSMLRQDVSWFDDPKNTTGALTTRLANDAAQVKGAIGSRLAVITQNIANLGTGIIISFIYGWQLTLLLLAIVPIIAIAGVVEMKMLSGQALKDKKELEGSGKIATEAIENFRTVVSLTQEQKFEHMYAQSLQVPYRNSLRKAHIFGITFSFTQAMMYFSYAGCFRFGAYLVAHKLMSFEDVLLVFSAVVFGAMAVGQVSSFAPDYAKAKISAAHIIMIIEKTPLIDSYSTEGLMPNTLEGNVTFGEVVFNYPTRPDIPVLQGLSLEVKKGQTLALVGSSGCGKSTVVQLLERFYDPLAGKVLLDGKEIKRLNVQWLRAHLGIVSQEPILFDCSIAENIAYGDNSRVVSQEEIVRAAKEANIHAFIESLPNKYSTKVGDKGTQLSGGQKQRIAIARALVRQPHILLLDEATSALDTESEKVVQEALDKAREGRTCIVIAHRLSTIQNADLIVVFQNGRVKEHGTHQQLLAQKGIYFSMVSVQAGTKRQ

`CC(C)[C@@H](C)/C=C/[C@@H](C)[C@H]1CC[C@H]2C3=CC[C@H]4CC(=O)CC[C@]4(C)[C@H]3CC[C@]12C` gave an IC50 (COLO 205) of 11.6 µM, an IC50 (COLO 320) of 8.4 µM and a CI50 [1] of 0.521.
